# According to article PMC7554884, “Small Molecule Inhibitors of DYRK1A Identified by Computational and Experimental Approaches” (International Journal of Molecular Sciences, 2020):
# Like-named read-outs stand apart in the source and are kept apart here.
# How the values were obtained:
# DYRK1A(h) = target: T1, DYRK1A(h) (Homo sapiens, UniProt Q13627); test: In vitro enzymatic assay (Eurofins, radiometric 33P-ATP); assay type: biochemical; conditions: for inhibition at 10 µM / % inhibition at 10 μM: DYRK1A; for IC50: read-out: IC50 values against DYRK1A
# T1 construct: purchased Eurofins Scientific Inc. Korea (contract assay service)
# Experimental: Enzymatic assays were performed by Eurofins Scientific Inc. Korea (Brussels, Belgium). […] The reaction was initiated by the addition of the MgATP mix. After incubation for 40 min at room temperature, the reaction was stopped by the addition of 3% phosphoric acid solution. Then, 10 μL of the reaction was then spotted onto a P30 filtermat and washed three times for 5 min in 75 mM phosphoric acid and once in methanol prior to drying and scintillation counting. […] All assays were performed in duplicate, and the average IC50 value was reported.
# GSK3β = conditions: read-out: IC50 against GSK3β, cited from earlier work
# DYRK1A = system: DYRK1A; set-up: method as in PMID 30170319; conditions: staurosporine; read-out: IC50 against DYRK1A; cited from earlier work
# [1] = as summarised in the discussion
structure (smiles),measurement,setting,value
"COC(=O)c1sc2ncnc(Nc3cccc(OC)c3)c2c1C [Compound 2, methyl 4-((3-methoxyphenyl)amino)-5-methylthieno (2,3-d)pyrimidine-6-carboxylate]",inhibition at 10 µM,DYRK1A(h),58%
same,IC50,"DYRK1A(h); duplicate, average",5.71 µM
"N#Cc1ccc2[nH]c(O)c(-c3ccc(CN4CCOCC4)cn3)c2c1 [AZD1080, 2-hydroxy-3-(5-(morpholinomethyl)pyridin-2-yl)-1H-indole-5-carbonitrile, reference compound]",inhibition at 10 µM,DYRK1A(h),71%
same,IC50,"DYRK1A(h); duplicate, average",2.91 µM
same,IC50,GSK3β; AZD1080,0.031 µM
"COc1ccc(Nc2ncc(F)c(N3CCOCC3)n2)cc1 [Compound 7, 5-fluoro-N-(4-methoxyphenyl)-4-morpholinopyrimidin-2-amine]",% inhibition at 10 μM,DYRK1A(h),33%
same,inhibition at 10 µM,DYRK1A(h),< 40%
"CC(C)c1nn(C)cc1-c1nc2c(N3CCN(Cc4cccnc4)CC3)c(Br)cnc2[nH]1 [Compound 1, 6-bromo-2-(3-isopropyl-1-methyl-1H-pyrazol-4-yl)-7-(4-(pyridin-3-ylmethyl)piperazin-1-yl)-3H-imidazo(4,5-b)pyridine]",inhibition at 10 µM,DYRK1A(h),70%
same,IC50,"DYRK1A(h); duplicate, average",6.77 µM
"O=C(O)c1cccc(Nc2nc(-c3ccccc3)c3cc(Br)ccc3n2)c1 [Compound 6, 3-((6-bromo-4-phenylquinazolin-2-yl)amino)benzoic acid]",inhibition at 10 µM,DYRK1A(h),76%
same,IC50,"DYRK1A(h); duplicate, average",5.83 µM
"COc1ccc(Nc2cc(C)nc(Nc3ccc(OC)cc3)n2)cc1 [Compound 5, N^2,N^4-bis(4-methoxyphenyl)-6-methylpyrimidine-2,4-diamine]",% inhibition at 10 μM,DYRK1A(h),27%
same,inhibition at 10 µM,DYRK1A(h),< 40%
"O=C(O)c1cc2cc(Br)ccc2s1 [Compound 3, 5-bromobenzo[b]thiophene-2-carboxylic acid]",inhibition at 10 µM,DYRK1A(h),82%
same,IC50,DYRK1A(h); [1],~3.2 µM
same,IC50,"DYRK1A(h); duplicate, average",3.25 µM
"N#Cc1cccc2sc(C(=O)O)cc12 [Compound 4, 4-cyanobenzo[b]thiophene-2-carboxylic acid]",inhibition at 10 µM,DYRK1A(h),71%
same,IC50,DYRK1A(h); [1],~3.2 µM
same,IC50,"DYRK1A(h); duplicate, average",3.24 µM
